From US20240158370A1, “CK1 alpha AND DUAL CK1 alpha / GSPT1 DEGRADING COMPOUNDS” (Innovo Therapeutics, Inc., priority 2022, published 2024) come the findings set out here.

One experiment deals with T1, CK1α (Homo sapiens, UniProt P48729+Q96SW2).
T1 construct: CSNK1A1-HiBit KI HEK293(LgBit) Cells; host or cells: HEK293(LgBit) knock-in cells
The experiment can be described thus: HiBiT degradation assay, CK1α, Procedure A. It counts as cell-based. The settings on record: six hours. Put shortly: (§1)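 DC50 and Ymin (% remaining) were derived by four-parameter fitting of luminescence data. The data come from a six-hour, 37° C compound exposure of cells in DMEM/10% FBS over a ten-point range, 10 μM to 0.005 μM, followed by Nano-Glo HiBiT lytic detection.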

For another experiment, the target named is GSPT1 (Homo sapiens, UniProt P15170+Q96SW2). The experiment can be described thus: HiBiT degradation assay, GSPT1, Procedure A. It counts as cell-based. Set-up: HiBit-GSPT1 KI HEK293(LgBit) Cells; host or cells: HEK293(LgBit) knock-in cells. The conditions noted are these: six hours. Put shortly:
as §1

Molecules are shown by their SMILES.

T1 sequence (P48729 whole entry): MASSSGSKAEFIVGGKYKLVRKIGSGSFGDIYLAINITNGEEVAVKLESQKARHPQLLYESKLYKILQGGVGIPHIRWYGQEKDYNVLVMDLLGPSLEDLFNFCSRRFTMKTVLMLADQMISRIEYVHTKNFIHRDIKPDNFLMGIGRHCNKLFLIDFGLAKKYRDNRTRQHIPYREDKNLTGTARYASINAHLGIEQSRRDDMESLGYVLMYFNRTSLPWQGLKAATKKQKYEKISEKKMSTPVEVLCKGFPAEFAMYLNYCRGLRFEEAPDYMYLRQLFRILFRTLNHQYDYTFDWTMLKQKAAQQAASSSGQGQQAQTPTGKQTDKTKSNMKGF
T1 sequence (Q96SW2 whole entry): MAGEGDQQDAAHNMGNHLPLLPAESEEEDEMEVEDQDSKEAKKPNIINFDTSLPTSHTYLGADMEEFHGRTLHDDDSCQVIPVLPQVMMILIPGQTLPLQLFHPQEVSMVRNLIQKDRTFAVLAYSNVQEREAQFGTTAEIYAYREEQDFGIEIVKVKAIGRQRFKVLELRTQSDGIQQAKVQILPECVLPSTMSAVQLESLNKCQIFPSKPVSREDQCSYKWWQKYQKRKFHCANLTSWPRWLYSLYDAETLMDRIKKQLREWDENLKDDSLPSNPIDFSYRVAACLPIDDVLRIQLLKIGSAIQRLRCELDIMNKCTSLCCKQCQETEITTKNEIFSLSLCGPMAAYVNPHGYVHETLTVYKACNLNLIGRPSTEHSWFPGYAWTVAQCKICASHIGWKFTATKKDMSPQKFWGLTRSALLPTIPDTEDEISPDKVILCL
T1 sequence (Q16531 whole entry partner): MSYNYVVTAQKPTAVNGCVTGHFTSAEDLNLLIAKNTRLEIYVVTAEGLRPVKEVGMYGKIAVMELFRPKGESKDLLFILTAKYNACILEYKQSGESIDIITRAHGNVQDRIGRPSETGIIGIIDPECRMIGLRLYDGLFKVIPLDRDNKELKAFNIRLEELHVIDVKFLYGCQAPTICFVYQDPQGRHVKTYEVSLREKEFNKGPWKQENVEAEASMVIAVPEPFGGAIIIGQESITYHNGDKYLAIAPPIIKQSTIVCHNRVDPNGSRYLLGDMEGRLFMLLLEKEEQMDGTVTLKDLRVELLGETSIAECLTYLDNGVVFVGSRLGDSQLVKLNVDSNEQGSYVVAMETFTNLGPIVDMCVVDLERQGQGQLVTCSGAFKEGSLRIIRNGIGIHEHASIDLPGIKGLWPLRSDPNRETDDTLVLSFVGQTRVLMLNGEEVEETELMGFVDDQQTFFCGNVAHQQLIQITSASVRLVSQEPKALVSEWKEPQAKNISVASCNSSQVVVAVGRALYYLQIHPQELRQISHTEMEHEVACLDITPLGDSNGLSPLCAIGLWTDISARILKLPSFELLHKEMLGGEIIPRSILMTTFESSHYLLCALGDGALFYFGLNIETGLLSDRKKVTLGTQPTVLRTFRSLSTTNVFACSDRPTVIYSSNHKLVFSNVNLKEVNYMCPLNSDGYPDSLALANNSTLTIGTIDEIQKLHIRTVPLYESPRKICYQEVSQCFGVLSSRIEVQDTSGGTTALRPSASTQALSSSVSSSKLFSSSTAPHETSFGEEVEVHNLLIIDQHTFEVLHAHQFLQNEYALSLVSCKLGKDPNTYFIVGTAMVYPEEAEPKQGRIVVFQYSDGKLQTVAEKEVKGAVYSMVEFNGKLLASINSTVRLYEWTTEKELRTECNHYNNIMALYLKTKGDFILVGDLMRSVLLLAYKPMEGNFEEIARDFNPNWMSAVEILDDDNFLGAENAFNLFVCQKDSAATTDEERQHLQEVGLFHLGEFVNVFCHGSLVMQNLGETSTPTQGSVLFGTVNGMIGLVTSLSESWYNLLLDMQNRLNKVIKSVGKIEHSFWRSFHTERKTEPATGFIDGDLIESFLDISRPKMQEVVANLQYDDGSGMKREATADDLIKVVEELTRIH
GSPT1, sequence (P15170 whole entry): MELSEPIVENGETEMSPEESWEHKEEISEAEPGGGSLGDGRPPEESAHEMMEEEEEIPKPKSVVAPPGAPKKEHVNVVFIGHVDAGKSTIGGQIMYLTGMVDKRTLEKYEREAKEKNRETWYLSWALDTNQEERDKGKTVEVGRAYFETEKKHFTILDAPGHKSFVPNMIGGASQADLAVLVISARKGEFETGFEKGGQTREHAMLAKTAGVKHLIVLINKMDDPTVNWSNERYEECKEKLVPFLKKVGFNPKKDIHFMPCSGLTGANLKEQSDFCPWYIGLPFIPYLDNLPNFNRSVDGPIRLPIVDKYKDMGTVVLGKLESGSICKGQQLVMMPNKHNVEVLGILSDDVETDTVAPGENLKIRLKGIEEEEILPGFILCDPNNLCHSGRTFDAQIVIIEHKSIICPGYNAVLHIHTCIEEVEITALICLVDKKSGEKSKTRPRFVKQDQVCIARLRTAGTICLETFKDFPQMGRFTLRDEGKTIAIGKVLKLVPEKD
GSPT1, sequence (Q96SW2 whole entry): as the sequence (Q96SW2 whole entry) above
GSPT1, sequence (Q16531 whole entry partner): as the sequence (Q16531 whole entry partner) above

Consider `Cn1ncc(-c2ccc3c(c2)CN(C2CCC(=O)NC2=O)C3=O)c1-c1ccc2c(ccn2C)c1` (centres unmarked) [Example 387], for which, on CK1α, the “CK1α Ymin” value is reported as “D (D = >10- 25% remaining)” and the 50% degradation concentration (DC50) is less than 0.025 µM. In addition, on GSPT1, the DC50 is no less than 0.025 µM and the “GSPT1 Ymin” value is “F (F = >75-100% remaining)”.
For `Cn1ncc(-c2ccc3c(c2)CN(C2CCC(=O)NC2=O)C3=O)c1-c1cnn(CC(F)F)c1` (centres unmarked) [Example 388], on CK1α, the “CK1α Ymin” value is on record as “E (E = >25-75% remaining)” and the DC50 is no less than 0.025 µM. In addition, on GSPT1, the DC50 was no less than 0.025 µM and the “GSPT1 Ymin” value is listed as “F (F = >75-100% remaining)”.
For `Cn1ncc(-c2ccc3c(c2)CN(C2CCC(=O)NC2=O)C3=O)c1-c1ccc2cnn(C)c2c1` (centres unmarked) [Example 389], at CK1α, the “CK1α Ymin” value is listed as “E (E = >25-75% remaining)” and the DC50 is less than 0.025 µM. At GSPT1, the DC50 was no less than 0.025 µM and the “GSPT1 Ymin” value is given as “F (F = >75-100% remaining)”.
Regarding `Cn1ncc(-c2ccc3c(c2)CN(C2CCC(=O)NC2=O)C3=O)c1-c1cnc2c(ccn2C)c1` (centres unmarked) [Example 390], at CK1α, the “CK1α Ymin” value is given as “F (F = >75-100% remaining)” and the DC50 is less than 0.025 µM. On GSPT1, the DC50 was no less than 0.025 µM and the “GSPT1 Ymin” value was “F (F = >75-100% remaining)”.
Take `Cc1nc2ccc(-c3c(-c4ccc5c(c4)CN(C4CCC(=O)NC4=O)C5=O)cnn3C)cc2[nH]1` (centres unmarked) [Example 391]: on CK1α, the “CK1α Ymin” value was “C (C = 0-10% remaining)” and the DC50 was no less than 0.025 µM. Moreover, at GSPT1, the DC50 is no less than 0.025 µM and the “GSPT1 Ymin” value was “F (F = >75-100% remaining)”.
Consider `Cn1ncc(-c2ccc3c(c2)CN(C2CCC(=O)NC2=O)C3=O)c1-c1ccc2scnc2c1` (centres unmarked) [Example 392], for which, on CK1α, the “CK1α Ymin” value is given as “E (E = >25-75% remaining)” and the DC50 is less than 0.025 µM. In addition, at GSPT1, the DC50 is no less than 0.025 µM and the “GSPT1 Ymin” value is given as “F (F = >75-100% remaining)”.
In the same order, the values of `Cn1ncc(-c2ccc3c(c2)CN(C2CCC(=O)NC2=O)C3=O)c1-c1ccc2ncsc2c1` (centres unmarked) [Example 393] are “D (D = >10- 25% remaining)”, less than 0.025 µM, no less than 0.025 µM and “F (F = >75-100% remaining)”.
On to `Cn1ncc(-c2ccc3c(c2)CN(C2CCC(=O)NC2=O)C3=O)c1-c1cnc2sccc2c1` (centres unmarked) [Example 394], for which, at CK1α, the “CK1α Ymin” value is “E (E = >25-75% remaining)” and the DC50 is no less than 0.025 µM. Further, at GSPT1, the DC50 was no less than 0.025 µM and the “GSPT1 Ymin” value is listed as “F (F = >75-100% remaining)”.
`Cn1ncc(-c2ccc3c(c2)CN(C2CCC(=O)NC2=O)C3=O)c1-c1cnn(-c2ccccc2)c1` (centres unmarked) [Example 395]: on CK1α, the “CK1α Ymin” value is on record as “F (F = >75-100% remaining)” and the DC50 was less than 0.025 µM. Also, on GSPT1, the DC50 is less than 0.025 µM and the “GSPT1 Ymin” value is listed as “E (E = >25-75% remaining)”.
As to `Cn1ncc(-c2ccc3c(c2)CN(C2CCC(=O)NC2=O)C3=O)c1-c1ccn(-c2ccc(F)cc2)n1` (centres unmarked) [Example 396], at CK1α, the “CK1α Ymin” value was “E (E = >25-75% remaining)” and the DC50 is less than 0.025 µM. Also, at GSPT1, the DC50 was no less than 0.025 µM and the “GSPT1 Ymin” value was “F (F = >75-100% remaining)”.
Take `Cc1ccc(-c2c(-c3ccc4c(c3)CN(C3CCC(=O)NC3=O)C4=O)ncn2C)cn1` (centres unmarked) [Example 397]: at CK1α, the “CK1α Ymin” value is “D (D = >10- 25% remaining)” and the DC50 is no less than 0.025 µM. In addition, on GSPT1, the half-maximal degradation concentration (DC50) was no less than 0.025 µM and the “GSPT1 Ymin” value was “F (F = >75-100% remaining)”.
For `Cc1cc(-c2c(-c3ccc4c(c3)CN(C3CCC(=O)NC3=O)C4=O)ncn2C)ccn1` (centres unmarked) [Example 398], on CK1α, the “CK1α Ymin” value is given as “D (D = >10- 25% remaining)” and the DC50 is less than 0.025 µM. Moreover, on GSPT1, the DC50 is less than 0.025 µM and the “GSPT1 Ymin” value is “F (F = >75-100% remaining)”.
Regarding `Cn1cnc(-c2ccc3c(c2)CN(C2CCC(=O)NC2=O)C3=O)c1-c1cccc(C#N)n1` (centres unmarked) [Example 399], at CK1α, the “CK1α Ymin” value is listed as “D (D = >10- 25% remaining)” and the DC50 was less than 0.025 µM. Also, on GSPT1, the DC50 is no less than 0.025 µM and the “GSPT1 Ymin” value is “F (F = >75-100% remaining)”.
In the same order, the values of `Cn1cnc(-c2ccc3c(c2)CN(C2CCC(=O)NC2=O)C3=O)c1-c1ccc(=O)n(C)c1` (centres unmarked) [Example 400] are “D (D = >10- 25% remaining)”, no less than 0.025 µM, no less than 0.025 µM and “F (F = >75-100% remaining)”.
As for `Cn1cnc(-c2ccc3c(c2)CN(C2CCC(=O)NC2=O)C3=O)c1-c1ccc2nc[nH]c2c1` (centres unmarked) [Example 401], on CK1α, the “CK1α Ymin” value is “C (C = 0-10% remaining)” and the DC50 was less than 0.025 µM. On GSPT1, the DC50 was no less than 0.025 µM and the “GSPT1 Ymin” value was “E (E = >25-75% remaining)”.
For the compound `Cn1cnc(-c2ccc3c(c2)CN(C2CCC(=O)NC2=O)C3=O)c1-c1ccc2scnc2c1` (centres unmarked) [Example 402], on CK1α, the “CK1α Ymin” value is given as “E (E = >25-75% remaining)” and the DC50 is less than 0.025 µM. Besides, at GSPT1, the DC50 was no less than 0.025 µM and the “GSPT1 Ymin” value was “F (F = >75-100% remaining)”.
Turning to `Cn1cnc(-c2ccc3c(c2)CN(C2CCC(=O)NC2=O)C3=O)c1-c1ccc(N2CCCCC2)nc1` (centres unmarked) [Example 403], on CK1α, the “CK1α Ymin” value was “D (D = >10- 25% remaining)” and the DC50 was less than 0.025 µM. Further, at GSPT1, the DC50 is no less than 0.025 µM and the “GSPT1 Ymin” value is recorded as “F (F = >75-100% remaining)”.
On to `Cn1cnc(-c2ccc3c(c2)CN(C2CCC(=O)NC2=O)C3=O)c1-c1ccc(N2CCOCC2)nc1` (centres unmarked) [Example 404], for which, on CK1α, the “CK1α Ymin” value was “E (E = >25-75% remaining)” and the DC50 is no less than 0.025 µM. On GSPT1, the DC50 was no less than 0.025 µM and the “GSPT1 Ymin” value was “F (F = >75-100% remaining)”.
In the case of `Cn1cnc(-c2ccc3c(c2)CN(C2CCC(=O)NC2=O)C3=O)c1-c1cncc(OCc2ccccc2)c1` (centres unmarked) [Example 405], on CK1α, the “CK1α Ymin” value was “F (F = >75-100% remaining)” and the DC50 was less than 0.025 µM. Further, at GSPT1, the DC50 was less than 0.025 µM and the “GSPT1 Ymin” value was “F (F = >75-100% remaining)”.
`Cn1cnc(-c2ccc3c(c2)CN(C2CCC(=O)NC2=O)C3=O)c1-c1cnn(Cc2ccccc2)c1` (centres unmarked) [Example 406]: on CK1α, the “CK1α Ymin” value was “D (D = >10- 25% remaining)” and the DC50 is no less than 0.025 µM. In addition, at GSPT1, the DC50 was less than 0.025 µM and the “GSPT1 Ymin” value is reported as “E (E = >25-75% remaining)”.
Take `Cc1c(-c2c(-c3ccc4c(c3)CN(C3CCC(=O)NC3=O)C4=O)ncn2C)cnn1-c1ccccc1` (centres unmarked) [Example 407]: on CK1α, the “CK1α Ymin” value is “C (C = 0-10% remaining)” and the DC50 is less than 0.025 µM. For the same compound, on GSPT1, the DC50 is no less than 0.025 µM and the “GSPT1 Ymin” value is recorded as “E (E = >25-75% remaining)”.
Turning to `CN1CCN(c2cccc(-c3c(-c4ccc5c(c4)CN(C4CCC(=O)NC4=O)C5=O)ncn3C)c2)CC1` (centres unmarked) [Example 408], at CK1α, the “CK1α Ymin” value is given as “E (E = >25-75% remaining)” and the DC50 is less than 0.025 µM. On GSPT1, this compound displayed a DC50 of no less than 0.025 µM.
For the compound `Cn1ncc(-c2ccc3c(c2)CN(C2CCC(=O)NC2=O)C3=O)c1-c1cccc(CCCCCCc2ccccc2)c1` (centres unmarked) [Example 409], on CK1α, the “CK1α Ymin” value is “E (E = >25-75% remaining)” and the 50% degradation concentration (DC50) was no less than 0.025 µM. At GSPT1, the 50% degradation concentration (DC50) is no less than 0.025 µM and the “GSPT1 Ymin” value is “F (F = >75-100% remaining)”.
Consider `CCOC(=O)Cc1cccc(-c2c(-c3ccc4c(c3)CN(C3CCC(=O)NC3=O)C4=O)cnn2C)c1` (centres unmarked) [Example 410], for which, at CK1α, the “CK1α Ymin” value is “E (E = >25-75% remaining)” and the DC50 was less than 0.025 µM. At GSPT1, the DC50 was no less than 0.025 µM and the “GSPT1 Ymin” value is “F (F = >75-100% remaining)”.
For `COCCCOc1ccc(-c2c(-c3ccc4c(c3)CN(C3CCC(=O)NC3=O)C4=O)cnn2C)cc1` (centres unmarked) [Example 411], on CK1α, the “CK1α Ymin” value is “E (E = >25-75% remaining)” and the DC50 was less than 0.025 µM. For the same compound, on GSPT1, the DC50 was no less than 0.025 µM and the “GSPT1 Ymin” value is given as “F (F = >75-100% remaining)”.
Take `Cn1ncc(-c2ccc3c(c2)CN(C2CCC(=O)NC2=O)C3=O)c1-c1cccc(N2CCNCC2)c1` (centres unmarked) [Example 412]: at CK1α, the “CK1α Ymin” value is “E (E = >25-75% remaining)” and the DC50 is no less than 0.025 µM. At GSPT1, the DC50 was no less than 0.025 µM and the “GSPT1 Ymin” value was “F (F = >75-100% remaining)”.
As to `Cn1ncc(-c2ccc3c(c2)CN(C2CCC(=O)NC2=O)C3=O)c1-c1ccc(C2CCNCC2)cc1` (centres unmarked) [Example 413], on CK1α, the “CK1α Ymin” value is listed as “E (E = >25-75% remaining)” and the DC50 is no less than 0.025 µM. On GSPT1, the DC50 was no less than 0.025 µM and the “GSPT1 Ymin” value is “F (F = >75-100% remaining)”.
As to `Cn1ncc(-c2ccc3c(c2)CN(C2CCC(=O)NC2=O)C3=O)c1-c1ccc(CN2CCNCC2)cc1` (centres unmarked) [Example 414], on CK1α, the “CK1α Ymin” value is “E (E = >25-75% remaining)” and the DC50 is no less than 0.025 µM. Moreover, at GSPT1, the DC50 is no less than 0.025 µM and the “GSPT1 Ymin” value is reported as “F (F = >75-100% remaining)”.
As for `Cn1cc(-c2ccc3c(c2)CN(C2CCC(=O)NC2=O)C3=O)nc1C1OCCCO1` (centres unmarked) [Example 415, 3-(5-(2-(1,3-dioxan-2-yl)-1-methyl-1H-imidazol-4-yl)-1-oxoisoindolin-2-yl) piperidine-2,6-dione], on CK1α, the “CK1α Ymin” value is “E (E = >25-75% remaining)” and the DC50 was less than 0.025 µM. In addition, on GSPT1, the DC50 is no less than 0.025 µM and the “GSPT1 Ymin” value was “F (F = >75-100% remaining)”.
As for `Cn1ncc(-c2ccc3c(c2)CN(C2CCC(=O)NC2=O)C3=O)c1-c1ccc(OC(F)F)cc1` (centres unmarked) [Example 416, 3-(5-(5-(4-(difluoromethoxy)phenyl)-1-methyl-1H-pyrazol-4-yl)-1-oxoisoindolin-2-yl)piperidine-2,6-dione], on CK1α, the “CK1α Ymin” value is “E (E = >25-75% remaining)” and the DC50 was less than 0.025 µM. At GSPT1, the DC50 is no less than 0.025 µM and the “GSPT1 Ymin” value is “F (F = >75-100% remaining)”.
